Assay results as given in patent publication US20160375019A1, “TREATMENT OF CHRONIC GRAFT VERSUS HOST DISEASE WITH SYK INHIBITORS” (Gilead Sciences, Inc., priority 2015, published 2016).
Each block holds one compound with its values, some of them ahead of it.

Columns and labels:
[1] = system: basophils (CD63 expression) in human whole blood; test: 384-well HTBS Whole Blood CD63 Basophil Assay; assay type: cell-based; details: human whole blood (25% blood); comparison table
Procedure: Syk activity was assessed in relation to reduced activation of basophils as measured by the expression of CD63 in a human whole blood basophil cellular assay (25% blood). Basophil activation was measured in human whole blood using the Flow CAST kit (Buhlmann Laboratories AG, Baselstrasse, Switzerland) following the protocol provided by the manufacturer with minor modifications. Fresh human whole blood in heparin was collected and delivered same day (AllCells, Emeryville, Calif.). Whole blood samples were incubated with either DMSO (1% final) or serial diluted compounds in DMSO for 60 minutes at 37° C. Basophils were activated using the anti-FceRI mAb and stained with anti-CD63-FITC and anti-CCR3-PE for 20 minutes at 37° C. (per well: 50 μL of whole blood was mixed with 113 μL of stimulation buffer, 8.5 μL anti-FceRI mAb, 8.5 μL Ab stain CCR3-PE/CD63-FITC). Cells were centrifuged at 1000×g for 18 minutes and 150 μL/well of supernatant removed. Red blood cells were lysed and cells fixed by 2 rounds of cell lysing: resuspending cell pellets with 150 μL/well 1× lysis buffer, incubating at room temperature for 10 minutes, and collecting cell pellets by centrifuging for 1200 rpms for 5 minutes. Cells were washed with 150 μL/well wash buffer twice, and resuspended in a final volume of 75 μL/well of wash buffer for either immediate flow cytometery analysis or overnight incubation at 4° C. followed by flow cytometry analysis. Degranulation (basophil activation) was detected by CD63 surface expression on CCR3 positive cells. The percent CD63 positive cells within the gated basophil population were determined and normalized to the DMSO (negative control) and control compound (positive control).

hepatocytes = assay type: in vitro ADME; details: human
Procedure: The human […] stability of the compounds as predicted hepatocyte clearance in L/hr/kg was assessed. Compounds to be tested were diluted to 200 μM (4 μl of 10 mM DMSO stock into 196 μl ACN:H2O (50:50). Propranolol was used as a positive control, and buffer only without hepatocytes as 0% control. These were further diluted 4 μl with 891 μl KHB buffer (InVitroGRO catalog number Z99074) to provide 2× dosing solution. To each well of 24 well plate, 250 μl of the 2× dosing solution was added to each well with 250 μl of hepatocytes cells (1×10^6 viable cells/ml per well) or KHB for control samples to achieve a final compound concentration of 1 μM during incubation. The final solvent concentration was 0.01% DMSO and 0.25% ACN. The culture plate was placed on a rocker and incubated at 37° C., 5% CO2. Samples were collected at time 0, 1, 3, and 6 hours. The loss of parent compound was determined using LC-MS methods against a standard curve.

[2] = system: B cells (CD19+) in PBMCs from cGVHD and inactive cGVHD subjects; test: Apoptosis Assay: B cells in PBMCs from subjects with active or inactive cGVHD, flow cytometry; assay type: cell-based, human; details: 48 hours
Procedure: Entospletinib (Formula I) was prepared as a 10 mM stock in dimethyl sulfoxide (DMSO). Before use, entospletinib was thawed from 10 mM DMSO stocks frozen in 0.75 mL polypropylene tubes at −20° C.
For untreated PBMCs, DMSO alone (the diluent used to generate entospletinib stock solution) was used in the cultures at the equivalent volume as for the 1.0 μM entospletinib treatment group. The cells were then incubated for 48 hr at 37° C. and 5% CO2, harvested, and assessed for the frequency of apoptotic B cells by flow cytometry analysis as described below.
Flow Cytometry Analysis—Cultured PBMCs were washed in FACS wash buffer (PBS containing 2% FBS) and then resuspended in FACS wash containing Fc block (Human TruStain FcXTM Fc Receptor Blocking Solution from BioLegend, San Diego, Calif.) at the recommended concentration. Following a 15 minute incubation on ice, the cells were stained with Pacific Blue™ conjugated anti-human CD19 antibody (BioLegend, Inc.) for an additional 30 min and then washed in cold PBS, followed by a second wash with Annexin V Binding Buffer (Annexin V Apoptosis Detection Kit-APC, eBioscience, Inc.) according to the manufacturer's instructions. The cells were then resuspended in Annexin V Binding Buffer containing APC-conjugated Annexin V, and incubated in the dark for 15 min at RT. Finally, the cells were washed with cold Annexin V Binding Buffer, resuspended in cold Annexin V Binding Buffer containing 7-AAD (BD Biosciences), kept on ice, and analyzed immediately on a FACSCantoTM flow cytometer. Flow cytometry data files were analyzed using FlowJo software (version X) to identify B cells and determine the frequencies of apoptotic cells based on Annexin V and 7-AAD staining.
For each set of patient samples, B cell apoptosis induced by entospletinib at each concentration was determined by the following ratio: % Annexin V^+/7-AAD^− B cells (entospletinib-treated)/% Annexin V^+/7-AAD^− B cells (untreated). […] Graphic display and curve fit analysis to determine the EC50 for entospletinib apoptosis-inducing activity in active cGVHD B cells was performed using GraphPad Prism software (GraphPad Software, La Jolla, Calif).

[3] = Kinetic Solubility in phosphate buffer at pH 7.4; assay type: physicochemical; details: 37 °C, aqueous buffer, kinetic from dmso stock; phosphate buffer pH 7.4
Procedure: The kinetic solubility of compounds in phosphate buffer at pH 7.4 was assessed. The compounds to be tested were dissolved in dimethylsulfoxide at a 10 mM concentration. Stock samples were diluted, 3 μl with 297 μl of the phosphate buffer at pH 7.4 (DulBecco's phosphate buffered saline (Sigma-Aldrich D8662), overall molarity is 0.149 M and pH 7.43). The samples were then incubated for 24 hours at 37° C. with shaking, the centrifuged and an aliquot taken and tested relative to a known standard concentration of 0.1 mM.

Structure (SMILES): COc1ccc(Nc2nc(-c3cccc(N)c3)cn3ccnc23)cc1OC [6-(3-aminophenyl)-N-(3,4-dimethoxyphenyl)imidazo[1,2-a]pyrazin-8-amine, reference compound]
- IC50 [1]: 0.809 µM
- Hheps CL (hepatocytes): 4 mL/min/kg

Structure (SMILES): Cc1ncc(-c2cn3ccnc3c(Nc3ccc(N4CCOCC4)cc3)n2)cc1N [6-(5-amino-6-methylpyridin-3-yl)-N-(4-morpholinophenyl)imidazo[1,2-a]pyrazin-8-amine, reference compound]
- IC50 [1]: 0.25 µM
- Hheps CL (hepatocytes): 13.3 mL/min/kg

Structure (SMILES): c1cn2cc(-c3ccc4cn[nH]c4c3)nc(Nc3ccc(N4CCOCC4)cc3)c2n1 [Entospletinib, 6-(1H-indazol-6-yl)-N-(4-morpholinophenyl)imidazo[1,2-a]pyrazin-8-amine]
- B cell apoptosis, one subject with cGVHD with low level of baseline apoptosis ([2]; 1.0-0.0078 μM): dose-dependent increase in B cell apoptosis
- B cell apoptosis, other two cGVHD subjects with higher baseline level of apoptosis ([2]; 1.0-0.0078 μM): caused an increase in B cell apoptosis
- apoptosis of B cells obtained from subjects with cGVHD ([2]; 1.0-0.0078 μM): caused apoptosis of B cells
- B cell apoptosis in cGVHD samples versus subjects without cGVHD ([2]; >125 nM ENTO, mean of 3 donors): statistically significant dose-dependent increase in B cell apoptosis
- Annexin V+/7AAD− (frequency of parent) ([2]; Inactive #1, 7.8 nM): 47.7
- Annexin V+/7AAD− (frequency of parent) ([2]; Inactive #1, 15.6 nM): 45.7
- Annexin V+/7AAD− (frequency of parent) ([2]; Inactive #1, 31.3 nM): 46.6
- Annexin V+/7AAD− (frequency of parent) ([2]; Inactive #1, 62.5 nM): 47.5
- Annexin V+/7AAD− (frequency of parent) ([2]; Inactive #1, 125 nM): 53.4
- Annexin V+/7AAD− (frequency of parent) ([2]; Inactive #1, 250 nM): 51.3
- Annexin V+/7AAD− (frequency of parent) ([2]; Inactive #1, 500 nM): 48.7
- Annexin V+/7AAD− (frequency of parent) ([2]; Inactive #1, 1000 nM): 44.4
- Annexin V+/7AAD− (frequency of parent) ([2]; Inactive #2, 7.8 nM): 41.5
- Annexin V+/7AAD− (frequency of parent) ([2]; Inactive #2, 15.6 nM): 39.8
- Annexin V+/7AAD− (frequency of parent) ([2]; Inactive #2, 31.3 nM): 43.9
- Annexin V+/7AAD− (frequency of parent) ([2]; Inactive #2, 62.5 nM): 42.2
- Annexin V+/7AAD− (frequency of parent) ([2]; Inactive #2, 125 nM): 43.2
- Annexin V+/7AAD− (frequency of parent) ([2]; Inactive #2, 250 nM): 44.9
- Annexin V+/7AAD− (frequency of parent) ([2]; Inactive #2, 500 nM): 50.2
- Annexin V+/7AAD− (frequency of parent) ([2]; Inactive #2, 1000 nM): 50.4
- Annexin V+/7AAD− (frequency of parent) ([2]; Inactive #3, 7.8 nM): 50.4
- Annexin V+/7AAD− (frequency of parent) ([2]; Inactive #3, 15.6 nM): 51.2
- Annexin V+/7AAD− (frequency of parent) ([2]; Inactive #3, 31.3 nM): 51.7
- Annexin V+/7AAD− (frequency of parent) ([2]; Inactive #3, 62.5 nM): 52.1
- Annexin V+/7AAD− (frequency of parent) ([2]; Inactive #3, 125 nM): 52.4
- Annexin V+/7AAD− (frequency of parent) ([2]; Inactive #3, 250 nM): 56.2
- Annexin V+/7AAD− (frequency of parent) ([2]; Inactive #3, 500 nM): 57.1
- Annexin V+/7AAD− (frequency of parent) ([2]; Inactive #3, 1000 nM): 55.6
- Annexin V+/7AAD− (frequency of parent) ([2]; cGVHD #1, 7.8 nM): 40.1
- Annexin V+/7AAD− (frequency of parent) ([2]; cGVHD #1, 15.6 nM): 40.4
- Annexin V+/7AAD− (frequency of parent) ([2]; cGVHD #1, 31.3 nM): 42.0
- Annexin V+/7AAD− (frequency of parent) ([2]; cGVHD #1, 62.5 nM): 48.2
- Annexin V+/7AAD− (frequency of parent) ([2]; cGVHD #1, 125 nM): 48.2
- Annexin V+/7AAD− (frequency of parent) ([2]; cGVHD #1, 250 nM): 50.7
- Annexin V+/7AAD− (frequency of parent) ([2]; cGVHD #1, 500 nM): 53.6
- Annexin V+/7AAD− (frequency of parent) ([2]; cGVHD #1, 1000 nM): 55.0
- Annexin V+/7AAD− (frequency of parent) ([2]; cGVHD #2, 7.8 nM): 41.0
- Annexin V+/7AAD− (frequency of parent) ([2]; cGVHD #2, 15.6 nM): 40.7
- Annexin V+/7AAD− (frequency of parent) ([2]; cGVHD #2, 31.3 nM): 39.6
- Annexin V+/7AAD− (frequency of parent) ([2]; cGVHD #2, 62.5 nM): 41.5
- Annexin V+/7AAD− (frequency of parent) ([2]; cGVHD #2, 125 nM): 43.9
- Annexin V+/7AAD− (frequency of parent) ([2]; cGVHD #2, 250 nM): 48.6
- Annexin V+/7AAD− (frequency of parent) ([2]; cGVHD #2, 500 nM): 48.3
- Annexin V+/7AAD− (frequency of parent) ([2]; cGVHD #2, 1000 nM): 53.5
- Annexin V+/7AAD− (frequency of parent) ([2]; cGVHD #3, 7.8 nM): 19.6
- Annexin V+/7AAD− (frequency of parent) ([2]; cGVHD #3, 15.6 nM): 20.0
- Annexin V+/7AAD− (frequency of parent) ([2]; cGVHD #3, 31.3 nM): 20.8
- Annexin V+/7AAD− (frequency of parent) ([2]; cGVHD #3, 62.5 nM): 21.6
- Annexin V+/7AAD− (frequency of parent) ([2]; cGVHD #3, 125 nM): 26.4
- Annexin V+/7AAD− (frequency of parent) ([2]; cGVHD #3, 250 nM): 29.5
- Annexin V+/7AAD− (frequency of parent) ([2]; cGVHD #3, 500 nM): 32.7
- Annexin V+/7AAD− (frequency of parent) ([2]; cGVHD #3, 1000 nM): 42.2

Structure (SMILES): Cc1ncc(-c2cn3ccnc3c(Nc3ccc(N4CCN(C5COC5)CC4)c(OCCO)c3)n2)nc1N [Ex.-7, 2-(5-((6-(6-amino-5-methylpyrazin-2-yl)imidazo[1,2-a]pyrazin-8-yl)amino)-2-(4-(oxetan-3-yl)piperazin-1-yl)phenoxy)ethanol]
- solubility kinetic at 24 h [3]: > 90 µM
- Hheps CL (hepatocytes): 0.833 mL/min/kg

Second part, the compound after the results:

- Hheps CL (hepatocytes): 11.3 mL/min/kg
Structure (SMILES): Nc1cncc(-c2cn3ccnc3c(Nc3ccc(N4CCOCC4)cc3)n2)c1 [6-(5-aminopyridin-3-yl)-N-(4-morpholinophenyl)imidazo[1,2-a]pyrazin-8-amine, reference compound]

- Hheps CL (hepatocytes): 15 mL/min/kg
Structure (SMILES): COc1ccc(Nc2nc(-c3ccc(N)nc3)cn3ccnc23)cc1OC [6-(6-aminopyridin-3-yl)-N-(3,4-dimethoxyphenyl)imidazo[1,2-a]pyrazin-8-amine, reference compound]

- solubility kinetic at 24 h [3]: > 90 µM
- Hheps CL (hepatocytes): 2 mL/min/kg
Structure (SMILES): Cc1ncc(-c2cn3ccnc3c(Nc3ccc(N4CCN(C5COC5)CC4)cc3)n2)nc1N [Ex.-1, 6-(6-amino-5-methylpyrazin-2-yl)-N-(4-(4-(oxetan-3-yl)piperazin-1-yl)phenyl)imidazo[1,2-a]pyrazin-8-amine]

- solubility kinetic at 24 h [3]: > 90 µM
- Hheps CL (hepatocytes): 0.917 mL/min/kg
Structure (SMILES): Nc1cncc(-c2cn3ccnc3c(Nc3ccc(N4CCN(C5COC5)CC4)cc3)n2)n1 [Ex.-2, 6-(6-aminopyrazin-2-yl)-N-(4-(4-(oxetan-3-yl)piperazin-1-yl)phenyl)imidazo[1,2-a]pyrazin-8-amine]
